Results: the NIST ThermoML archive (doi:10.1021/je900387e)
Numbers after ± are expanded uncertainties.

Assay: xn = mol fraction of the nth substance listed
Conditions: Liquid, Pycnometric method

CCCCCl [1-chlorobutane] + O=C=O
Conditions	mass density [kg/m3]
313.1 K, 10970 kPa, x1 = 0.0744	828 ± 4
313.1 K, 11030 kPa, x1 = 0.0243	763 ± 4
313.1 K, 11220 kPa, x1 = 0.0483	800 ± 4
313.1 K, 11230 kPa, x1 = 0.0981	855 ± 4
313.1 K, 11350 kPa, x1 = 0.0744	833 ± 4
313.1 K, 11500 kPa, x1 = 0.1488	870 ± 4
313.1 K, 11510 kPa, x1 = 0.0483	806 ± 4
313.1 K, 11780 kPa, x1 = 0.0744	839 ± 4
313.1 K, 11810 kPa, x1 = 0.0483	811 ± 4
313.1 K, 11820 kPa, x1 = 0.0981	862 ± 4
313.1 K, 12110 kPa, x1 = 0.0483	816 ± 4
313.1 K, 12170 kPa, x1 = 0.1488	875 ± 4
313.1 K, 12220 kPa, x1 = 0.0744	844 ± 4
313.1 K, 12430 kPa, x1 = 0.0744	847 ± 4
313.1 K, 12440 kPa, x1 = 0.0981	869 ± 4
313.1 K, 12540 kPa, x1 = 0.1488	878 ± 4
313.1 K, 12780 kPa, x1 = 0.0981	872 ± 4
313.1 K, 12890 kPa, x1 = 0.1488	880 ± 4
313.1 K, 13000 kPa, x1 = 0.0981	874 ± 4
313.1 K, 13240 kPa, x1 = 0.1488	883 ± 4
313.1 K, 13660 kPa, x1 = 0.1488	885 ± 4
313.1 K, 14020 kPa, x1 = 0.1488	888 ± 4
313.1 K, 14460 kPa, x1 = 0.1488	890 ± 4
313.1 K, 14830 kPa, x1 = 0.1488	893 ± 4
314.5 K, 8320 kPa, x1 = 0.0243	495 ± 4
314.5 K, 8330 kPa, x1 = 0.0243	501 ± 4
314.5 K, 8360 kPa, x1 = 0.0243	510 ± 4
314.5 K, 8390 kPa, x1 = 0.0243	522 ± 4
314.5 K, 8430 kPa, x1 = 0.0243	531 ± 4
314.5 K, 8460 kPa, x1 = 0.0243	541 ± 4
314.5 K, 8490 kPa, x1 = 0.0243	552 ± 4
314.5 K, 8530 kPa, x1 = 0.0243	562 ± 4
314.5 K, 8590 kPa, x1 = 0.0243	575 ± 4
314.5 K, 8650 kPa, x1 = 0.0243	588 ± 4
314.5 K, 8720 kPa, x1 = 0.0243	602 ± 4
314.5 K, 8820 kPa, x1 = 0.0243	617 ± 4
314.5 K, 8930 kPa, x1 = 0.0243	632 ± 4
314.5 K, 9080 kPa, x1 = 0.0243	648 ± 4
314.5 K, 9270 kPa, x1 = 0.0243	664 ± 4
314.5 K, 9480 kPa, x1 = 0.0243	680 ± 4
314.5 K, 9790 kPa, x1 = 0.0243	698 ± 4
314.5 K, 10150 kPa, x1 = 0.0243	715 ± 4
314.5 K, 10480 kPa, x1 = 0.0243	729 ± 4
314.5 K, 10730 kPa, x1 = 0.0243	738 ± 4
314.5 K, 11030 kPa, x1 = 0.0243	748 ± 4
314.5 K, 11370 kPa, x1 = 0.0243	758 ± 4
314.5 K, 11740 kPa, x1 = 0.0243	767 ± 4
317.9 K, 7340 kPa, x1 = 0.1488	805 ± 4
317.9 K, 7730 kPa, x1 = 0.0981	761 ± 4
317.9 K, 7740 kPa, x1 = 0.1488	811 ± 4
317.9 K, 7900 kPa, x1 = 0.0981	766 ± 4
317.9 K, 8050 kPa, x1 = 0.0744	713 ± 4
317.9 K, 8060 kPa, x1 = 0.1488	815 ± 4
317.9 K, 8090 kPa, x1 = 0.0981	771 ± 4
317.9 K, 8230 kPa, x1 = 0.0744	720 ± 4
317.9 K, 8310 kPa, x1 = 0.0981	777 ± 4
317.9 K, 8360 kPa, x1 = 0.0744	727 ± 4
317.9 K, 8450 kPa, x1 = 0.1488	820 ± 4
317.9 K, 8520 kPa, x1 = 0.0744	733 ± 4
317.9 K, 8530 kPa, x1 = 0.0483	630 ± 4
317.9 K, 8530 kPa, x1 = 0.0981	782 ± 4
317.9 K, 8560 kPa, x1 = 0.0243	417 ± 4
317.9 K, 8590 kPa, x1 = 0.0243	423 ± 4
317.9 K, 8590 kPa, x1 = 0.0483	636 ± 4
317.9 K, 8630 kPa, x1 = 0.0243	433 ± 4
317.9 K, 8670 kPa, x1 = 0.0243	443 ± 4
317.9 K, 8690 kPa, x1 = 0.0483	646 ± 4
317.9 K, 8690 kPa, x1 = 0.0744	740 ± 4
317.9 K, 8720 kPa, x1 = 0.0243	453 ± 4
317.9 K, 8750 kPa, x1 = 0.0243	464 ± 4
317.9 K, 8770 kPa, x1 = 0.0981	787 ± 4
317.9 K, 8790 kPa, x1 = 0.0243	473 ± 4
317.9 K, 8810 kPa, x1 = 0.0483	656 ± 4
317.9 K, 8830 kPa, x1 = 0.1488	823 ± 4
317.9 K, 8850 kPa, x1 = 0.0243	484 ± 4
317.9 K, 8880 kPa, x1 = 0.0744	746 ± 4
317.9 K, 8890 kPa, x1 = 0.0243	496 ± 4
317.9 K, 8940 kPa, x1 = 0.0243	507 ± 4
317.9 K, 8940 kPa, x1 = 0.0483	667 ± 4
317.9 K, 8990 kPa, x1 = 0.0243	520 ± 4
317.9 K, 9050 kPa, x1 = 0.0981	793 ± 4
317.9 K, 9060 kPa, x1 = 0.0243	534 ± 4
317.9 K, 9080 kPa, x1 = 0.0483	678 ± 4
317.9 K, 9110 kPa, x1 = 0.0744	753 ± 4
317.9 K, 9140 kPa, x1 = 0.0243	549 ± 4
317.9 K, 9200 kPa, x1 = 0.0483	689 ± 4
317.9 K, 9230 kPa, x1 = 0.0243	565 ± 4
317.9 K, 9240 kPa, x1 = 0.1488	828 ± 4
317.9 K, 9340 kPa, x1 = 0.0243	582 ± 4
317.9 K, 9350 kPa, x1 = 0.0981	799 ± 4
317.9 K, 9360 kPa, x1 = 0.0744	760 ± 4
317.9 K, 9460 kPa, x1 = 0.0243	599 ± 4
317.9 K, 9490 kPa, x1 = 0.0483	701 ± 4
317.9 K, 9580 kPa, x1 = 0.0243	615 ± 4
317.9 K, 9600 kPa, x1 = 0.0744	766 ± 4
317.9 K, 9650 kPa, x1 = 0.0981	804 ± 4
317.9 K, 9660 kPa, x1 = 0.1488	832 ± 4
317.9 K, 9740 kPa, x1 = 0.0243	630 ± 4
317.9 K, 9770 kPa, x1 = 0.0483	713 ± 4
317.9 K, 9840 kPa, x1 = 0.0243	639 ± 4
317.9 K, 9890 kPa, x1 = 0.0744	773 ± 4
317.9 K, 9950 kPa, x1 = 0.0243	647 ± 4
317.9 K, 10010 kPa, x1 = 0.0981	810 ± 4
317.9 K, 10030 kPa, x1 = 0.0243	654 ± 4
317.9 K, 10090 kPa, x1 = 0.0483	725 ± 4
317.9 K, 10090 kPa, x1 = 0.1488	836 ± 4
317.9 K, 10220 kPa, x1 = 0.0744	780 ± 4
317.9 K, 10350 kPa, x1 = 0.0483	734 ± 4
317.9 K, 10350 kPa, x1 = 0.0981	815 ± 4
317.9 K, 10560 kPa, x1 = 0.0744	787 ± 4
317.9 K, 10580 kPa, x1 = 0.1488	841 ± 4
317.9 K, 10650 kPa, x1 = 0.0483	742 ± 4
317.9 K, 10750 kPa, x1 = 0.0981	822 ± 4
317.9 K, 10940 kPa, x1 = 0.0744	794 ± 4
317.9 K, 10970 kPa, x1 = 0.0483	752 ± 4
317.9 K, 11090 kPa, x1 = 0.1488	847 ± 4
317.9 K, 11180 kPa, x1 = 0.0981	827 ± 4
317.9 K, 11340 kPa, x1 = 0.0483	761 ± 4
317.9 K, 11370 kPa, x1 = 0.0744	802 ± 4
317.9 K, 11620 kPa, x1 = 0.1488	851 ± 4
317.9 K, 11670 kPa, x1 = 0.0981	834 ± 4
317.9 K, 11740 kPa, x1 = 0.0483	770 ± 4
317.9 K, 11860 kPa, x1 = 0.0744	810 ± 4
317.9 K, 11940 kPa, x1 = 0.1488	853 ± 4
317.9 K, 12140 kPa, x1 = 0.0981	839 ± 4
317.9 K, 12220 kPa, x1 = 0.0483	780 ± 4
317.9 K, 12240 kPa, x1 = 0.1488	856 ± 4
317.9 K, 12370 kPa, x1 = 0.0744	817 ± 4
317.9 K, 12520 kPa, x1 = 0.1488	858 ± 4
317.9 K, 12690 kPa, x1 = 0.0981	846 ± 4
317.9 K, 12740 kPa, x1 = 0.0483	790 ± 4
317.9 K, 12850 kPa, x1 = 0.1488	861 ± 4
317.9 K, 12930 kPa, x1 = 0.0744	825 ± 4
317.9 K, 13140 kPa, x1 = 0.1488	863 ± 4
317.9 K, 13250 kPa, x1 = 0.0981	852 ± 4
317.9 K, 13320 kPa, x1 = 0.0483	800 ± 4
317.9 K, 13440 kPa, x1 = 0.1488	865 ± 4
317.9 K, 13510 kPa, x1 = 0.0744	833 ± 4
317.9 K, 13620 kPa, x1 = 0.0483	805 ± 4
317.9 K, 13800 kPa, x1 = 0.1488	868 ± 4
317.9 K, 13830 kPa, x1 = 0.0981	859 ± 4
317.9 K, 13950 kPa, x1 = 0.0483	811 ± 4
317.9 K, 14180 kPa, x1 = 0.0744	841 ± 4
317.9 K, 14190 kPa, x1 = 0.1488	871 ± 4
317.9 K, 14300 kPa, x1 = 0.0483	816 ± 4
317.9 K, 14480 kPa, x1 = 0.1488	873 ± 4
317.9 K, 14530 kPa, x1 = 0.0981	865 ± 4
317.9 K, 14860 kPa, x1 = 0.1488	875 ± 4
317.9 K, 14910 kPa, x1 = 0.0744	849 ± 4
317.9 K, 15220 kPa, x1 = 0.0981	872 ± 4
322.7 K, 7900 kPa, x1 = 0.1488	782 ± 4
322.7 K, 8140 kPa, x1 = 0.1488	786 ± 4
322.7 K, 8330 kPa, x1 = 0.0981	728 ± 4
322.7 K, 8380 kPa, x1 = 0.1488	789 ± 4
322.7 K, 8510 kPa, x1 = 0.0981	734 ± 4
322.7 K, 8620 kPa, x1 = 0.0243	328 ± 4
322.7 K, 8620 kPa, x1 = 0.0981	739 ± 4
322.7 K, 8630 kPa, x1 = 0.0744	669 ± 4
322.7 K, 8670 kPa, x1 = 0.1488	794 ± 4
322.7 K, 8690 kPa, x1 = 0.0243	336 ± 4
322.7 K, 8740 kPa, x1 = 0.0744	675 ± 4
322.7 K, 8750 kPa, x1 = 0.0243	343 ± 4
322.7 K, 8780 kPa, x1 = 0.0981	744 ± 4
322.7 K, 8810 kPa, x1 = 0.0243	351 ± 4
322.7 K, 8860 kPa, x1 = 0.0243	360 ± 4
322.7 K, 8860 kPa, x1 = 0.0744	683 ± 4
322.7 K, 8920 kPa, x1 = 0.0243	368 ± 4
322.7 K, 8940 kPa, x1 = 0.0981	749 ± 4
322.7 K, 8970 kPa, x1 = 0.1488	798 ± 4
